PMC3260273, “Allosteric Antagonism of Insect Odorant Receptor Ion Channels” (PLoS ONE, 2012)
pIC50: −log10 of the molar value.

How the values were obtained:
[1] = target: T1, HsOrco (Harpegnathos saltator, UniProt E2BJ30); assay: whole-cell patch clamp, HEK cells, […] antagonist against […] VUAA1; type: cell-based
T1 construct: gene Orco
T1 sequence (E2BJ30 1-479): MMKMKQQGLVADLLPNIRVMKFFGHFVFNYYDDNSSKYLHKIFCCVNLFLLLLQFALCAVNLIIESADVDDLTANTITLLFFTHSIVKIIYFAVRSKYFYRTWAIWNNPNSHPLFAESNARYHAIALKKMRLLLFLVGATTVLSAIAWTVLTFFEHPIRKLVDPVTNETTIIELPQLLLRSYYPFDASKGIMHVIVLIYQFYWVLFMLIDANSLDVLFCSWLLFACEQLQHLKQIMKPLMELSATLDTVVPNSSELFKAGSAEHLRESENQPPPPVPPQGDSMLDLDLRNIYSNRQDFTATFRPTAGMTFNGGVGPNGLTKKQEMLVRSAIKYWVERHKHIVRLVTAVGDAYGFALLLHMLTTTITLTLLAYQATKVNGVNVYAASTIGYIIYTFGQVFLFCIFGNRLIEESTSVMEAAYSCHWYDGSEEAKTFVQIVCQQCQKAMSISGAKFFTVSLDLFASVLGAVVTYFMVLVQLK

[2] = target: T2, AgOrco (Anopheles gambiae, UniProt Q7QCC7); assay: calcium mobilization in AgOrco-only HEK cells against VUAA1; whole-cell patch clamp; type: cell-based
T2 construct: gene Orco
T2 sequence (Q7QCC7 1-478): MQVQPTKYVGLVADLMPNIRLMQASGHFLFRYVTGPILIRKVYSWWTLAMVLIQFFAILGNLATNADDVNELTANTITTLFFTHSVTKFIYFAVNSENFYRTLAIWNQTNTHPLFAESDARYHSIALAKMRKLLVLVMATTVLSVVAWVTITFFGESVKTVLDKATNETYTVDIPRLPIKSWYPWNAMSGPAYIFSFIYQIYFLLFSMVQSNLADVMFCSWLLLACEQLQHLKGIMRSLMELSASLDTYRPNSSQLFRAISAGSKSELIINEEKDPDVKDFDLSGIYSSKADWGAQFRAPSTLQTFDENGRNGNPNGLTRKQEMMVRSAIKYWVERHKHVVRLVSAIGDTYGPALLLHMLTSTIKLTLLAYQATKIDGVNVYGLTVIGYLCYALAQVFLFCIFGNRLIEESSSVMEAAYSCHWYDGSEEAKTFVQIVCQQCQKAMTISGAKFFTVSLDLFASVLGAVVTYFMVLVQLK

[3] = target: T2, AgOrco; assay: calcium mobilization in AgOrco-only HEK cells against VUAA1; type: cell-based
[4] = target: TRPV1 (Rattus norvegicus, UniProt O35433); assay: whole-cell patch clamp in HEK cells, […] capsaicin; type: cell-based
Chain of TRPV1 (O35433 whole entry): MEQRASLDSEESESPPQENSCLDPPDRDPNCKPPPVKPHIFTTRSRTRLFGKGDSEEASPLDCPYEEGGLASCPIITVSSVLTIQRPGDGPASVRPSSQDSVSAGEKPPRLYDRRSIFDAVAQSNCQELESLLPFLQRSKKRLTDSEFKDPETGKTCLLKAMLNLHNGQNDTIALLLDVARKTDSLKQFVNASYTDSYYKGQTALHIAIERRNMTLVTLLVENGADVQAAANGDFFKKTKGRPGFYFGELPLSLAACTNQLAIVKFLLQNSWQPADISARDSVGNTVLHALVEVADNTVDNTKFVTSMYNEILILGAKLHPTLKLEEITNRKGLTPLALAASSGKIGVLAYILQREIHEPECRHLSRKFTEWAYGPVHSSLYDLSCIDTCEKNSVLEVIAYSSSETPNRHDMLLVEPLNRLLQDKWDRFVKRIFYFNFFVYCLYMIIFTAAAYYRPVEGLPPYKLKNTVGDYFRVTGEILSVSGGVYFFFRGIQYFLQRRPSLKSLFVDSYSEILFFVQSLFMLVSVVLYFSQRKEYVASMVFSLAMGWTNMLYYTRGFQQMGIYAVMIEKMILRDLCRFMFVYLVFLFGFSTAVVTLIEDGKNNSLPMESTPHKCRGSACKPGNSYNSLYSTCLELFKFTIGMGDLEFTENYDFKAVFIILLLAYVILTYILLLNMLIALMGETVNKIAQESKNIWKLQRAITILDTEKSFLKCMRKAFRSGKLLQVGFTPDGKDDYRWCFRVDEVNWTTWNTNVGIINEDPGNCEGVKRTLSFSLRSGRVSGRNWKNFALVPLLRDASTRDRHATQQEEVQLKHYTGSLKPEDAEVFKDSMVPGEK

[5] = system: T3, AgOr65; assay: calcium mobilization concentration response in AgOrco+AgOr65 HEK cells; patch clamp; type: cell-based, Anopheles gambiae
T3 construct: gene Or65; with AgOrco

CCn1c(SCC(=O)N2c3ccccc3Sc3ccccc32)nnc1-c1ccco1 [VU0183254, 10-({[4-ethyl-5-(2-furyl)-4H-1,2,4-triazol-3-yl]thio}acetyl)-10H-phenothiazine]
% [1]: 63.9±2.2% | pIC50 [2]: 4.90

CCn1c(SCC(=O)Nc2ccc(Br)cc2C)nnc1-c1cccnc1 [VU0450667, N-(4-bromo-2-methylphenyl)-2-((4-ethyl-5-(pyridin-3-yl)-4H-1,2,4-triazol-3-yl)thio)acetamide]
pIC50 [3]: 2.80

COc1cc(CNC(=O)CCCC/C=C/C(C)C)ccc1O [capsaicin]
whole-cell patch clamp in HEK cells, 10 μM capsaicin [4]: VU0183254 did not affect the macroscopic currents induced by the natural TRPV1 ligand capsaicin

C=CCc1ccc(O)c(OC)c1 [eugenol]
EC50 [5]: −6.69+/−.03 log M
